Measurements from patent US9708286B2, “Ingenol-3-acylates III and ingenol-3-carbamates” (LEO Laboratories Limited, priority 2010, dated 2017).

Tests used:
Format in all cases: cell-based
[1] = system: PMN's (polymorphonuclear leukocytes); experiment: Neutrophil oxidative burst; conditions: Leukocyte, 40 min, read-out: Neutrophil oxidative burst Rel EC50 range, PMN from buffy coats, 40 min at RT, hydroethidine fluorescence; normalized to 5×10^−7 M PEP0005
Description: PMN's (polymorphonuclear leukocytes) were isolated and purified from fresh buffy coats by sequential sedimentation, density centrifugation and lysis of contaminating erythrocytes. Buffy coats were incubated with 2% methocel for 30-45 min to differentially sediment red blood cells. The leukocyte-rich supernatant was transferred to lymphoprep tubes to remove mononuclear cells by density centrifugation (400×g, 30 min). The pellet was resuspended and any remaining erythrocytes lysed using 0.2% NaCl for 30 sec before restoring isotonicity by the addition of 1.2% NaCl. This step was repeated until the cell pellet appears relatively free of red blood cells. Cells were resuspended in DPBS (Dulbecco's Phosphate Buffered Saline) (w.o. Ca^2+, Mg^2+) and the concentration adjusted to 1.4×10^6 cells/ml in HBSS (Hanks Balanced Salt solution) (w Ca^2+, Mg^2±) containing 0.1% BSA (Bovine Serum Albumin) and 5 mM glucose just prior to assay initiation. Titrated reference and test compounds were pre-mixed with HE (Hydroethidine) (10 μM final assay concentration) before addition to 96-well plates containing 2.5×10^5 cells. Following 40 min incubation at RT, changes in the respiratory burst was estimated by measuring fluorescence at 579 nm (excitation: 485 nm) using an Envision plate reader.
Test compound titration curves were fitted to a four-parameter sigmoidal curve after normalizing the effect of the test compound to the effect of the positive control (5×10^−7 M PEP0005). Rel EC50 denotes the concentration of test compound producing an effect that is midway between the fitted top and bottom. Abs EC50 is the concentration of test compound that provokes a response corresponding to 50% of the maximal effect associated with the positive control (5×10^−7 M PEP0005).

[2] = system: Primary human epidermal keratinocytes, HeKa; experiment: HeKa cytokine release (IL-8); conditions: Homo sapiens, HEKa, 6 h, read-out: HeKa cytokine release (IL-8) Rel EC50 range
Description: Primary human epidermal keratinocytes, HeKa, were seeded (10.000 cells/well) in 96-well plates the day before the assay. Test compounds were diluted in DMSO (dimethyl sulfoxide) and further diluted in assay medium and pipetted into wells of 96 well-plates containing HeKa cells. The plates were incubated for 6 h at 37° C. in humidified air with 5% CO2. Plates were centrifuged briefly to spin down cells at 4° C., the supernatant was removed and analysed by Meso Scale Discovery (MSD) 4-spot cytokine assay (Pro-inflammatory II Ultra Sensitive kit, MSD, MD, USA). The MSD assay employs a sandwich immunoassay format where capture antibodies are coated in a patterned array on the bottom of the wells of a 4-Spot-Multi-MSD plate. Standard samples were incubated in the MULTI-SPOT plates as well, and the cytokine (IL-8) binds to its corresponding capture antibody spot. The cytokine level was quantitated on a SECTOR™ Imager using a cytokine-specific Detection Antibody labelled with MSD SULFO-TAG™ reagent.
Test compound titration curves were fitted to a four-parameter sigmoidal curve after normalizing the effect of the test compound to the effect of the positive control (1.5×10^−7 M PEP0005). Rel EC50 denotes the concentration of test compound producing an effect that is midway between the fitted top and bottom.

[3] = system: HeLa cells; experiment: Necrosis assay; conditions: Homo sapiens, HeLa, 0.5 h, read-out: HeLa necrosis EC50 range
Description: HeLa cells (ATCC CCL-002) were grown in minimal essential medium (Invitrogen catalog no. 42360) containing 10% fetal bovine serum, 100 IU/ml penicillin and 100 μg/ml streptomycin. 4,000-6,000 cells were seeded into 96-well black ViewPlates-plates, clear bottom, (Perkin Elmer) in 100 μl medium and incubated overnight. Compounds were dissolved and pre-diluted in DMSO in 96-well polypropylene plates (Greiner) in a concentration range of 15 μM to 600 μM. At the time of the experiment cell plates were placed on heating blocks at 37° C., medium was removed and 40 μl fresh, pre-warmed medium was added per well. Cells were incubated for 15 min before addition of compounds. In parallel, 3 μl of compounds were diluted with 197 μl growth medium on a Tecan freedom-EVO pipetting station using 250 μl/s pipetting speed, in order to ensure effective mixing of the highly concentrated compound solutions with the aqueous phase. These pre-dilution plates were then equilibrated on heating blocks at 37° C. for 10 min. 80 μl pre-diluted compound were transferred manually to the corresponding wells containing HeLa cells yielding compound concentrations of 10 μM to 400 μM. Control conditions were 1% DMSO in growth medium (100% viability) and 400 μM ingenol mebutate in growth medium (0% viability). Plates were incubated on the heating blocks at 37° C. for 30 min. At the end of the incubation 10 μl PrestoBlue reagent (Invitrogen) were added to each well, plates were sealed with black seal, followed by incubation at 37° C. for 10 min with gentle shaking (150 rpm). Subsequently, plates were placed at room temperature for 20-30 min. Plates were read immediately after on an Envision Fluorescence reader (Perkin Elmer) with excitation at 535 nm and emission at 630 nm. Test compound titration curves were fitted to a four-parameter sigmoidal curve after normalizing the effect of the test compound to the effect of the positive control (4 10^−4 M PEP0005/ingenol mebutate). AbsEC50 denotes the concentration of test compound producing 50% effect.

Row | Compound | EC50 [1] [nM] | EC50 [2] [nM] | EC50 [3] [nM]
1 | CC1=C[C@]23C(=O)[C@@H](C=C(CO)[C@@H](O)[C@]2(O)[C@H]1OC(=O)c1cccn1C)[C@H]1[C@@H](C[C@H]3C)C1(C)C [Compound 581, Ingenol 3-(1-methylpyrrole-2-carboxylate)] | < 20 | < 20 | 150000 to 350000
2 | CC1=C[C@]23C(=O)[C@@H](C=C(CO)[C@@H](O)[C@]2(O)[C@H]1OC(=O)c1c(C)nn(CC(F)(F)F)c1C)[C@H]1[C@@H](C[C@H]3C)C1(C)C [Compound 577, Ingenol 3-(3,5-dimethyl-1-(2,2,2-trifluoroethyl)pyrazole-4-carboxylate)] | 20 to 100 | < 20 | 150000 to 350000
3 | CC1=C[C@]23C(=O)[C@@H](C=C(CO)[C@@H](O)[C@]2(O)[C@H]1OC(=O)N(C)c1ccccc1F)[C@H]1[C@@H](C[C@H]3C)C1(C)C [Compound 738, Ingenol 3-(N-(2-fluoro-phenyl)-N-methyl-carbamate)] | < 20 | 20 to 100 | 150000 to 350000
4 | CC1=C[C@]23C(=O)[C@@H](C=C(CO)[C@@H](O)[C@]2(O)[C@H]1OC(=O)N(C)C1CC1)[C@H]1[C@@H](C[C@H]3C)C1(C)C [Compound 723, Ingenol 3-(N-cyclopropyl-N-methyl-carbamate)] | < 20 | 20 to 100 | > 350000
5 | CC1=C[C@]23C(=O)[C@@H](C=C(CO)[C@@H](O)[C@]2(O)[C@H]1OC(=O)N(C)Cc1ccccc1)[C@H]1[C@@H](C[C@H]3C)C1(C)C [Compound 708, Ingenol 3-(N-benzyl-N-methyl-carbamate)] | 20 to 100 | < 20 | –
6 | CC1=C[C@]23C(=O)[C@@H](C=C(CO)[C@@H](O)[C@]2(O)[C@H]1OC(=O)N(C)C)[C@H]1[C@@H](C[C@H]3C)C1(C)C [Compound 702, Ingenol 3-(N,N-dimethyl-carbamate)] | 20 to 100 | > 100 | –
7 | CC1=C[C@]23C(=O)[C@@H](C=C(CO)[C@@H](O)[C@]2(O)[C@H]1OC(=O)c1c(C)cc(=O)oc1C)[C@H]1[C@@H](C[C@H]3C)C1(C)C [Compound 573, Ingenol 3-(2,4-dimethyl-6-oxo-pyran-3-carboxylate)] | 20 to 100 | 20 to 100 | –
8 | CC1=C[C@]23C(=O)[C@@H](C=C(CO)[C@@H](O)[C@]2(O)[C@H]1OC(=O)N1CCCC1C(F)(F)F)[C@H]1[C@@H](C[C@H]3C)C1(C)C (single isomer, unassigned; isomer a) [Compound 740, Ingenol 3-(2-trifluoromethyl-pyrrolidine-1-carboxylate) (ISOMER A)] | < 20 | 20 to 100 | –
9 | CC1=C[C@]23C(=O)[C@@H](C=C(CO)[C@@H](O)[C@]2(O)[C@H]1OC(=O)N1CCCC1)[C@H]1[C@@H](C[C@H]3C)C1(C)C [Compound 704, Ingenol 3-(pyrrolidine-1-carboxylate)] | 20 to 100 | > 100 | –
10 | CC1=C[C@]23C(=O)[C@@H](C=C(CO)[C@@H](O)[C@]2(O)[C@H]1OC(=O)NC1CCc2ccccc21)[C@H]1[C@@H](C[C@H]3C)C1(C)C (stereo partly shown) [Compound 712, Ingenol 3-(N-(indan-1-yl)-carbamate)] | 20 to 100 | 20 to 100 | –
11 | CC1=C[C@]23C(=O)[C@@H](C=C(CO)[C@@H](O)[C@]2(O)[C@H]1OC(=O)N(C)c1ccccn1)[C@H]1[C@@H](C[C@H]3C)C1(C)C [Compound 724, Ingenol 3-(N-methyl-N-(2-pyridyl)-carbamate)] | – | 20 to 100 | > 350000
12 | CC1=C[C@]23C(=O)[C@@H](C=C(CO)[C@@H](O)[C@]2(O)[C@H]1OC(=O)N1CCCCC1)[C@H]1[C@@H](C[C@H]3C)C1(C)C [Compound 707, Ingenol 3-(piperidine-1-carboxylate)] | < 20 | 20 to 100 | –
13 | CC1=C[C@]23C(=O)[C@@H](C=C(CO)[C@@H](O)[C@]2(O)[C@H]1OC(=O)Nc1ccccc1)[C@H]1[C@@H](C[C@H]3C)C1(C)C [Compound 711, Ingenol 3-(N-phenyl-carbamate)] | 20 to 100 | < 20 | –
14 | CC1=C[C@]23C(=O)[C@@H](C=C(CO)[C@@H](O)[C@]2(O)[C@H]1OC(=O)c1c(C)nn(C(C)(C)C)c1C)[C@H]1[C@@H](C[C@H]3C)C1(C)C [Compound 551, Ingenol 3-(1-tert-butyl-3,5-dimethyl-pyrazole-4-carboxylate)] | < 20 | < 20 | –
15 | CC1=C[C@]23C(=O)[C@@H](C=C(CO)[C@@H](O)[C@]2(O)[C@H]1OC(=O)N1CCCCCC1)[C@H]1[C@@H](C[C@H]3C)C1(C)C [Compound 728, Ingenol 3-(azepane-1-carboxylate)] | 20 to 100 | 20 to 100 | –
16 | CC1=C[C@]23C(=O)[C@@H](C=C(CO)[C@@H](O)[C@]2(O)[C@H]1OC(=O)c1cn(C)c2ccccc12)[C@H]1[C@@H](C[C@H]3C)C1(C)C [Compound 509, Ingenol 3-(1-methylindole-3-carboxylate)] | < 20 | < 20 | –
17 | CC1=C[C@]23C(=O)[C@@H](C=C(CO)[C@@H](O)[C@]2(O)[C@H]1OC(=O)N1CCOCC1)[C@H]1[C@@H](C[C@H]3C)C1(C)C [Compound 703, Ingenol 3-(morpholine-4-carboxylate)] | 20 to 100 | > 100 | –
18 | CC1=C[C@]23C(=O)[C@@H](C=C(CO)[C@@H](O)[C@]2(O)[C@H]1OC(=O)c1cnnn1-c1ccccc1)[C@H]1[C@@H](C[C@H]3C)C1(C)C [Compound 504, Ingenol 3-(3-phenyltriazole-4-carboxylate)] | 20 to 100 | 20 to 100 | –
19 | CC1=C[C@]23C(=O)[C@@H](C=C(CO)[C@@H](O)[C@]2(O)[C@H]1OC(=O)c1c(C(C)(C)C)noc1C)[C@H]1[C@@H](C[C@H]3C)C1(C)C [Compound 549, Ingenol 3-(5-methyl-3-tert-butyl-isoxazole-4-carboxylate)] | < 20 | < 20 | –
20 | CC1=C[C@]23C(=O)[C@@H](C=C(CO)[C@@H](O)[C@]2(O)[C@H]1OC(=O)NC1CCCCC1)[C@H]1[C@@H](C[C@H]3C)C1(C)C [Compound 710, Ingenol 3-(N-cyclohexyl-carbamate)] | < 20 | 20 to 100 | –
21 | CC1=C[C@]23C(=O)[C@@H](C=C(CO)[C@@H](O)[C@]2(O)[C@H]1OC(=O)N1CCCC1C(F)(F)F)[C@H]1[C@@H](C[C@H]3C)C1(C)C (stereo partly shown) [Compound 735, Ingenol 3-(2-trifluoromethyl-pyrrolidine-1-carboxylate)] | < 20 | – | 150000 to 350000
